From patent US20120058236A1, “SWEETENER COMPOSITION COMPRISING HIGH SOLUBILITY FORM OF REBAUDIOSIDE A AND METHOD OF MAKING” (Cargill Incorporated, priority 2009, published 2012)

What was measured:
[1] = Stability of aqueous solution of rebaudioside A crystal form; type: physicochemical; conditions: solution from Form 1 crystals containing more than about 1 g/100 g water
Source text: In some sweetening applications it is desirable to provide a sweetener composition of rebaudioside A that has a higher solubility in water than Form 2. […] Increased solubility in water allows more of the sweetener to be dissolved in a food product in order to provide the desired sweetness level. Increased solubility may be desirable in food products such as syrups and concentrates.

[2] = type: physicochemical
Method: (§1) 10 mg of sample was mixed with 0.5 mL deionized water and stirred by a magnetic stirrer at room temperature. As the solid was completely dissolved, more solid was added to the system with the increments of 10-40 mg until the solution became cloudy, which corresponded to the final concentration of 0.41 g/mL. The cloudy solution was filtered through a Millex-GV 0.22 um filter into a pre-weighted aluminum pan and the known mass of clear filtered solution was placed into an oven at 85° C. The solvent was completely evaporated and the residual solid was weighted to determine solubility.
as §1, with “16 mg of” for “10 mg of”, “mixed with 1 mL deionized” for “mixed with 0.5 mL deionized”, “water and was stirred by” for “water and stirred by”, “concentration of 0.4 g/mL. The” for “concentration of 0.41 g/mL. The”

Concentration left in solution after conversion to Form 2 ([1]; after hours to days)	Solubility at 22° C. (grams/100 grams water) [2]	Solubility in water at 24° C. (typical, stated in text) [2]	SMILES	Stability in solution (conversion of dissolved form) [1]
about 1 g/100 g water	–	–	C=C1C[C@@]23CC[C@H]4[C@@](C)(CCC[C@@]4(C)C(=O)O[C@@H]4O[C@H](CO)[C@@H](O)[C@H](O)[C@H]4O)[C@@H]2CC[C@]1(O[C@@H]1O[C@H](CO)[C@@H](O)[C@H](O[C@@H]2O[C@H](CO)[C@@H](O)[C@H](O)[C@H]2O)[C@H]1O[C@@H]1O[C@H](CO)[C@@H](O)[C@H](O)[C@H]1O)C3 [Form 1, rebaudioside A]	tends to convert to Form 2 within hours to days
–	0.154 grams/100 grams water	≤ 1 grams rebaudioside A/100 grams	C=C1C[C@@]23CC[C@H]4[C@@](C)(CCC[C@@]4(C)C(=O)O[C@@H]4O[C@H](CO)[C@@H](O)[C@H](O)[C@H]4O)[C@@H]2CC[C@]1(O[C@@H]1O[C@H](CO)[C@@H](O)[C@H](O[C@@H]2O[C@H](CO)[C@@H](O)[C@H](O)[C@H]2O)[C@H]1O[C@@H]1O[C@H](CO)[C@@H](O)[C@H](O)[C@H]1O)C3 [Form 2, rebaudioside A]	–
